These results are taken from US20080025997A1, “Cysteine-rich region of respiratory syncytial virus and methods of use therefor” (priority 2004, published 2008).

The subject of one test is RSV. The note with it: Glycoprotein added to F protein during immunization; cited from earlier work.
Test [1] concerns murine alveolar macrophages. Kind of test: Cytokine production by murine alveolar macrophages incubated with purified proteins and recombinant viruses. The test is classed as cell-based. The note with it: macrophages from naive mice. The method, then: Alveolar macrophages were obtained by bronchoalveolar lavage (BAL) followed by magentic bead depletion (Militenyi Biotec, Germany). Macrophages were incubated with brefeldin A for six hours, fixed with commercially available fixation and permeabilization reagents, CYTOFIX/CYTOPERM (Becton Dickinson, Elmhust, Ill.), and stained using phycoerythrin (PE)-conjugated anti-IL-6 antibody (Becton Dickinson). Data was analyzed using side and forward scatter plots and FACScan (Becton Dickinson).

Test [2] concerns purified human monocytes. Kind of test: Monocyte cytokine production upon exposure to RSV and recombinant RSV viruses.
Protocol: (§1) Human PBMC were isolated from leukopaks using Histopaque (Sigma, St. Louis, Mo.). Monocytes were isolated using the Monocyte Isolation Kit II (positive selection for CD3, CD7, CD16, CD19, CD56, CD123, and glycophorin A, MiltenyiBiotec) with Macs LS separation columns. Remaining cells were >90% monocytes by anti-CD14 staining and forward- and side-light scatter analysis using FACScan (Becton-Dickinson, Elmhust, Ill.).
(§2) Purified monocytes were stimulated with LPS (1 μg) or purified proteins F or Glycoprotein (3 μg; kindly provided by V. Randolph, Wyeth Lederle, N.Y.). All rRSV variants were grown in Hep-2 cells and Vero cells as described^29,30, and used at 10^5 pfu multiplicity of infection (MOI)=1] for stimulations. Lysate of Hep-2 cells and Vero cells were used as control stimuli. UV-inactivation was performed as described elsewhere19^5 and lack of virus replication confirmed in cell culture. […] An additional peptide encoding the conserved 13 amino acid region upstream of the GCRR (164-176)^3 was also used in add-back experiments. […] The GCRR and control peptides included biotin-SGSG at the amino termini. The anti-CX3CR1 antibody was kindly provided by P. Murphy, NIAID, NIH and used as described^18. […] Cytokines were measured in supernatant fluids 18 hours after stimulation by immunoassay following manufacturer's instructions (Biosource Europe S. A, Belgium).
In test [3] the test system is purified human monocytes. Kind of test: F protein-mediated cytokine production by purified human monocytes. The following applies: for effect on F-induced IL-6 production: added to F-treated monocytes.
Protocol: as §1
(§3) Purified monocytes were stimulated with LPS (1 μg) or purified proteins F or Glycoprotein (3 μg; kindly provided by V. Randolph, Wyeth Lederle, N.Y.). All rRSV variants were grown in Hep-2 cells and Vero cells as described^29,30, and used at 10^5 pfu multiplicity of infection (MOI)=1] for stimulations. Lysate of Hep-2 cells and Vero cells were used as control stimuli. UV-inactivation was performed as described elsewhere19^5 and lack of virus replication confirmed in cell culture. […] An additional peptide encoding the conserved 13 amino acid region upstream of the GCRR (164-176)^3 was also used in add-back experiments. […] The GCRR and control peptides included biotin-SGSG at the amino termini. The anti-CX3CR1 antibody was kindly provided by P. Murphy, NIAID, NIH and used as described^18. For supplemental experiments, we used peptidoglycan (PGN; Fluka, Sigma) at 10 μg and CpGDNA (GTCGTT; HyCult Biotechnology) at 1 mM. Cytokines were measured in supernatant fluids 18 hours after stimulation by immunoassay following manufacturer's instructions (Biosource Europe S. A, Belgium).
A further test concerns TLR2. The test is described as follows: PGN-stimulated cytokine production by human monocytes. The note with it: co-incubation.
For a further test, the system named is NF-κB. Kind of test: NF-κB nuclear translocation immunoassay in human monocytes. The test is classed as cell-based. The note with it: 60 min; purified protein or live virus stimulation. As for the experimental part: Human monocytes were stimulated with purified RSV F and/or Glycoprotein (1 μg each) or indicated viruses for 60 minutes. After stimulation nuclear extracts were obtained using a hypotonic lysis buffer (10 mM HEPES (pH 7.9), 1.5 mM MgCl2, 10 mM KCl, 0.5 mM DTT, 0.1% Triton X-100 and protease inhibitors) and an extraction buffer (20 mM HEPES (pH 7.9), 1.5 mM MgCl2, 0.42 M NaCl, 0.5 mM DTT, 0.2 mM EDTA, 1.0% Igepal CA-630, 25% (v/v) glycerol and protease inhibitors). NF-κB subunits p50 and p65 were detected by a modified immunoassay using a double stranded biotinylated oligonucleotide containing the consensus sequence for NF-κB binding (5′-GGGACTTTCC-3′) [SEQ ID NO:______] (Chemicon International, Germany).

For another test, the system named is TLR9. Kind of test: CpGDNA-stimulated cytokine production by human monocytes. The following applies: co-incubation.
The next test concerns TLR4. Kind of test: Endotoxin (LPS)-mediated cytokine production by human monocytes. The following applies: for effect on LPS-induced cytokine production (IL-6, IL-1β): added to LPS-treated monocytes.

Protocol for TLR2: as §1, §2
Protocol for TLR4: as §1, §3
Protocol for TLR9: as §1, §2

Regarding “Glycoprotein: purified RSV attachment Glycoprotein from subgroup A (A2 strain)”, the “decrease in production of interferon-γ upon RSV challenge vs immunization with F alone” value in the test on RSV was “up to 70 fold”. Also, the “cytokine production in murine alveolar macrophages” value in test [1] was “modulating the innate responses elicited by both purified F and RSV”. Further, the “IL-6 response of mG-infected cells after add-back to culture media” value with purified human monocytes [2] (added to mG-infected monocytes) is recorded as “restored to levels similar to those elicited by RSV”. The “decrease in IL-6 production compared to monocytes incubated with F alone” value in the test with purified human monocytes [3] (F + Glycoprotein, P<0.01) was “approximately 1.5 log”. In addition, the “effect on F-induced IL-1β or IL-10 in supernatant fluids” value with purified human monocytes [3] (not shown) is recorded as “inhibitory effect similar to that observed for Glycoprotein on F-induced IL-6 production”. In the test on purified human monocytes [3] (supernatant fluids, 18 hours, immunoassay), the “IL-6 production by monocytes incubated with purified protein alone” value was “low”. Further, the “cytokine production elicited by TLR2 agonist PGN” value in the test with TLR2 was “inhibited”. Further, the NF-κB nuclear translocation result in the test on NF-κB is given as “decreased”. Moreover, the “cytokine production elicited by TLR9 agonist CpGDNA” value in the test with TLR9 is on record as “inhibited”.
Turning to “YFARGPGIHIRKR [HIV V3 loop control peptide, reference compound]”, the “effect on F-induced IL-6 production” value with purified human monocytes [3] was “inhibitory effect was not observed”. For the same substance, the “effect on LPS-induced cytokine production (IL-6, IL-1β)” value (shortened to “effect … (IL-6, IL-1β)”) in the test with TLR4 was “no effect”.
On to “bovine serum albumin [reference compound]”, for which the “effect on F-induced IL-6 production” value with purified human monocytes [3] was “no effect”.
For “HFEVFNFVPCSICSNNPTCWAICKRI [GCRR peptide]”, the “effect on F-induced IL-6 production” value with purified human monocytes [3] is given as “dose-dependent inhibition”. In addition, in the test on TLR4, the “effect on IL-10 production of monocytes incubated with LPS” value is reported as “affected production of IL-10” and the “effect … (IL-6, IL-1β)” value is “dose-dependent inhibition of cytokine production”.
“G^164-176: Glycoprotein peptide encompassing amino acids 164-176, conserved 13 amino acid segment upstream of the GCRR”: in the test with purified human monocytes [2] (peptide added with ΔG), the “modulation of IL-6 production by ΔG” value was “failed to modulate IL-6 production”.
“HFEVFNFVPSSISSNNPTSWAISKRI [GSRR, reference compound]”: in the test on TLR4, the “effect … (IL-6, IL-1β)” value is recorded as “no effect”.
Turning to “GlycoproteinA peptide (residues 273-288): control peptide within the Glycoprotein mucin-like domain [reference compound]”, the “effect on F-induced IL-6 production” value in the test on purified human monocytes [3] is “inhibitory effect was not observed”.
